Measurements published in patent US11021521B2, “Pore-modified gram-negative bacteria and uses thereof” (priority 2015, dated 2021).
Values after ≈ are worked out from the molar mass of the structure shown. Like-named read-outs stand apart in the source and are kept apart here.

Assays:
Test in all cases: microbe, parasite or virus in culture
Format in all cases: cell-based
[1] = tested on: A. baumannii AbΔ3-ARA-EcPore (efflux-deficient, hyperporinated); settings: AbΔ3-ARA-EcPore, at least three independent measurements
[2] = tested on: B. thailandensis BtΔ2-RHA-BtPore (efflux-deficient, hyperporinated)
[3] = tested on: A. baumannii Ab-ARA (wild type, empty cassette); settings: at least three independent measurements
[4] = tested on: P. aeruginosa PAO1-LAC-EcPore (hyperporinated); settings: for MIC: Pseudomonas aeruginosa, PAO1-LAC-EcPore, at least three independent measurements, read-out: MIC; for Fold decrease of MIC (potentiation) by hyperporination: Pae: PAO1-LAC-EcPore vs parent
[5] = tested on: P. aeruginosa PaΔ3-LAC (efflux-deficient); settings: Pseudomonas aeruginosa, at least three independent measurements, read-out: MIC
[6] = tested on: B. thailandensis BtΔ2-RHA (efflux-deficient)
[7] = tested on: B. thailandensis Bt-RHA (wild type, empty cassette)
[8] = tested on: B. cepacia Bc-RHA-BtPore (hyperporinated); settings: for MIC: Bc-RHA-BtPore; for Fold decrease of MIC (potentiation) by hyperporination: Bc: Bc-RHA-BtPore vs parent
[9] = tested on: B. cepacia Bc-RHA (wild type, empty cassette)
[10] = tested on: B. thailandensis Bt-RHA-BtPore (hyperporinated)
[11] = tested on: A. baumannii Ab-ARA-EcPore (hyperporinated); settings: for MIC: Ab-ARA-EcPore, at least three independent measurements; for Fold decrease of MIC (potentiation) by hyperporination: Abau: Ab-ARA-EcPore vs parent
[12] = tested on: P. aeruginosa PaΔ3-LAC-EcPore (efflux-deficient, hyperporinated); settings: Pseudomonas aeruginosa; PaΔ3-LAC-EcPore; at least three independent measurements; read-out: MIC
[13] = tested on: P. aeruginosa PAO1-LAC (wild type, empty cassette); settings: at least three independent measurements
[14] = tested on: A. baumannii AbΔ3-ARA (efflux-deficient); settings: AbΔ3-ARA, at least three independent measurements
[15] = Acinetobacter baumannii, read-out: MIC
[16] = Burkholderia cepacia, read-out: MIC

Row | Compound | MIC [1, 15] [µg/mL] | MIC ([2]; Burkholderia thailandensis) [µg/mL] | MIC [3, 15] [µg/mL] | MIC [4] [µg/mL] | MIC [5] [µg/mL] | MIC ([6]; Burkholderia thailandensis) [µg/mL] | MIC ([7]; Burkholderia thailandensis) [µg/mL] | MIC [8, 16] [µg/mL] | MIC [9, 16] [µg/mL] | MIC ([10]; Burkholderia thailandensis) [µg/mL] | MIC [11, 15] [µg/mL] | MIC [12] [µg/mL] | MIC [14, 15] [µg/mL] | further results
1 | CC[C@H]1OC(=O)[C@H](C)[C@@H](O[C@H]2C[C@@](C)(OC)[C@@H](O)[C@H](C)O2)[C@H](C)[C@@H](O[C@@H]2O[C@H](C)C[C@H](N(C)C)[C@H]2O)[C@](C)(O)C[C@@H](C)C(=O)[C@H](C)[C@@H](O)[C@]1(C)O [Erythromycin] | 0.08 (≈ 0.109 µM) | 0.5 (≈ 0.681 µM) | 5 (≈ 6.81 µM) | 2 (≈ 2.73 µM) | 16 (≈ 21.8 µM) | 1 (≈ 1.36 µM) | 512 (≈ 698 µM) | 8 to 16 (≈ 10.9 to 21.8 µM) | – | – | – | – | – | –
2 | NC[C@H]1O[C@H](O[C@H]2[C@H](O)[C@@H](O[C@H]3O[C@H](CO)[C@@H](O)[C@H](N)[C@H]3O)[C@H](N)C[C@@H]2N)[C@H](O)[C@@H](O)[C@@H]1O [Kanamycin] | – | 2 (≈ 4.13 µM) | – | – | – | 4 (≈ 8.26 µM) | > 64 | 4 to 8 (≈ 8.26 to 16.5 µM) | 64 (≈ 132 µM) | 64 (≈ 132 µM) | – | – | – | –
3 | C[C@H]1COc2c(N3CCN(C)CC3)c(F)cc3c(=O)c(C(=O)O)cn1c23 [Levofloxacin] | – | – | 0.125 (≈ 0.346 µM) | 0.063 (≈ 0.174 µM) | – | – | 2 (≈ 5.53 µM) | 0.06 (≈ 0.166 µM) | 2 (≈ 5.53 µM) | 1 (≈ 2.77 µM) | 0.125 (≈ 0.346 µM) | – | – | –
4 | C[C@@H](O)[C@H]1C(=O)N2C(C(=O)O)=C(S[C@@H]3CN[C@H](C(=O)N(C)C)C3)[C@H](C)[C@H]12 [Meropenem] | 0.063 (≈ 0.164 µM) | 0.03 (≈ 0.0782 µM) | 0.25 (≈ 0.652 µM) | 0.25 (≈ 0.652 µM) | 0.125 (≈ 0.326 µM) | 0.25 (≈ 0.652 µM) | 1 (≈ 2.61 µM) | 0.125 (≈ 0.326 µM) | > 4 | 1 (≈ 2.61 µM) | 0.063 (≈ 0.164 µM) | 0.03 (≈ 0.0782 µM) | 0.125 (≈ 0.326 µM) | Fold decrease of MIC (potentiation) by hyperporination [4]: 2-4 fold; MIC ([13]; Pseudomonas aeruginosa, read-out: MIC): 0.5 µg/mL (≈ 1.3 µM); Fold decrease of MIC (potentiation) by hyperporination [11]: 2-4 fold; Fold decrease of MIC (potentiation) by hyperporination [8]: > 32 fold
5 | CCn1cc(C(=O)O)c(=O)c2ccc(C)nc21 [Nalidixic acid] | 0.75 (≈ 3.23 µM) | 1.5 (≈ 6.46 µM) | 3 (≈ 12.9 µM) | 32 (≈ 138 µM) | 8 (≈ 34.4 µM) | 12 (≈ 51.7 µM) | 48 (≈ 207 µM) | 3 (≈ 12.9 µM) | 24 (≈ 103 µM) | 24 (≈ 103 µM) | 1.5 (≈ 6.46 µM) | 2 (≈ 8.61 µM) | 1.5 (≈ 6.46 µM) | –
6 | CO[C@@H]1[C@@H](OC(N)=O)[C@@H](O)[C@H](Oc2ccc3c(O)c(NC(=O)c4ccc(O)c(CC=C(C)C)c4)c(=O)oc3c2C)OC1(C)C [Novobiocin] | 0.025 (≈ 0.0408 µM) | 0.008 (≈ 0.0131 µM) | 3.1 (≈ 5.06 µM) | 64 (≈ 104 µM) | 32 (≈ 52.2 µM) | 0.25 (≈ 0.408 µM) | 8 (≈ 13.1 µM) | 0.125 (≈ 0.204 µM) | 8 (≈ 13.1 µM) | 4 (≈ 6.53 µM) | 1.56 (≈ 2.55 µM) | 4 (≈ 6.53 µM) | 0.025 (≈ 0.0408 µM) | Fold decrease of MIC (potentiation) by hyperporination [4]: 16-32 fold; MIC [13]: 512 µg/mL (≈ 836 µM); Fold decrease of MIC (potentiation) by hyperporination [11]: 2 fold; Fold decrease of MIC (potentiation) by hyperporination [10]: 2 fold; Fold decrease of MIC (potentiation) by hyperporination [8]: 16-32 fold
7 | CO[C@H]1/C=C/O[C@@]2(C)Oc3c(C)c(O)c4c(O)c(c(/C=N/N5CCN(C)CC5)c(O)c4c3C2=O)NC(=O)/C(C)=C\C=C\[C@H](C)[C@H](O)[C@@H](C)[C@@H](O)[C@@H](C)[C@H](OC(C)=O)[C@@H]1C [Rifampin] | 0.25 (≈ 0.304 µM) | 0.03 (≈ 0.0365 µM) | 2 (≈ 2.43 µM) | – | – | 4 (≈ 4.86 µM) | 16 (≈ 19.4 µM) | 0.06 (≈ 0.0729 µM) | 8 (≈ 9.72 µM) | 8 (≈ 9.72 µM) | 0.5 (≈ 0.608 µM) | – | 1 (≈ 1.22 µM) | –
8 | CN(C)[C@@H]1C(O)=C(C(N)=O)C(=O)[C@@]2(O)C(O)=C3C(=O)c4c(O)cccc4[C@@](C)(O)[C@H]3C[C@@H]12 [Tetracycline] | 0.004 (≈ 0.009 µM) | 0.06 (≈ 0.135 µM) | 0.125 (≈ 0.281 µM) | 0.5 (≈ 1.13 µM) | 2 (≈ 4.5 µM) | 0.125 (≈ 0.281 µM) | 2 (≈ 4.5 µM) | 8 (≈ 18 µM) | > 8 | 2 (≈ 4.5 µM) | 0.031 (≈ 0.0698 µM) | 0.125 (≈ 0.281 µM) | 0.008 (≈ 0.018 µM) | –
9 | Gentamicin | – | – | – | – | – | – | – | – | – | – | – | – | – | MIC [9]: 128 µg/mL; MIC [1]: 8 µg/mL; MIC [2]: 2 µg/mL; MIC [3]: 4 µg/mL; MIC [6]: 4 µg/mL; MIC [7]: >64 µg/mL; MIC [11]: 4 µg/mL; MIC [10]: >64 µg/mL; MIC [14]: 8 µg/mL; MIC [8]: 16 µg/mL
